Test results taken from patent EP0435794A1, “Alkenyl- or heteroaryl thio, sulfone, sulfoxy herbicides” (RHONE-POULENC AGROCHIMIE, priority 1989, dated 1991).
For Notation de l'activité herbicide GLY in this document: ranges in brackets are in %.
For Notation de l'activité herbicide ZEA in this document: ranges in brackets are in %.

Each molecule was assayed on Alopecurus myosuroides (assay: Exemple C: selectivity test in field crops, pre-emergence (weed)). Details: dose 0.5 Kg m.a./ha, 24 days.
Type: in vivo
Text: (§1) Exemple C - Essai de sélectivité en grandes cultures avec application herbicide, en prélevée des espèces végétales
(§2) Dans des pots de 7 X 7 X 8 cm remplis de terre agricole légère, on sème un nombre de graines déterminé en fonction de l'espèce végétale et de la grosseur de la graine.
(§3) On recouvre ensuite les graines d'une couche de terre d'environ 3 mm d'épaisseur.
(§4) Les pots sont alors traités par pulvérisation de bouillie en quantité correspondant à une dose volumique d'application de 500 l/ha et contenant la matière active à la concentration désirée.
(§5) La bouillie a été préparée de la même manière qu'à l'exemple A.
(§6) Les pots traités sont ensuite placés dans des bacs destinés à recevoir l'eau d'arrosage, en subirrigation, et maintenus pendant 24 jours à température ambiante sous 70 % d'humidité relative.
(§7) Le relevé est effectué de la façon suivante:
(§8) Au bout de 24 jours, on mesure un pourcentage (D) de destruction du nombre de pieds dans le pot traité par rapport au nombre de plantes dans les pots non traités (témoin). On mesure, sur les plantes traitées restantes, le pourcentage de réduction de taille (RT) par rapport aux plantes témoins.
(§9) Le pourcentage de volume foliaire non détruit par le produit est donc donné par la formule: ([100-D] X [100-RT])/(100)= A [formula]
(§10) Cette valeur A est transformée en notation de 0 à 5 selon l'échelle suivante:
(§11) Ainsi, un produit est jugé comme sélectif vis à vis de la culture lorsque la valeur A notée est de 0 ou 1.
(§12) Les résultats obtenus sont présentés dans l'exemple C pour des doses d'application de 500, 1000, 2000 ou 4000 g de matière active par hectare selon les produits.
(§13) Les espèces végétales utilisées dans cet exemple sont: […]
For O=S(=O)(CC(O)(CBr)c1cccc(F)c1)c1sccc1Cl (stereo not shown) [compound 67], the “Notation de l'activité herbicide ALO” value was 2 (50 à 70).

Same assay, conditions: dose 1 Kg m.a./ha, 24 days
With C=C(CS(=O)(=O)c1sc(C)nc1C)c1cccc(F)c1 [compound 45] the “Notation de l'activité herbicide ALO” value was 5 (O à 10).
In the case of C=C(CS(=O)(=O)c1sc(C)nc1C)c1cc(C)cc(C)c1 [compound 46], the “Notation de l'activité herbicide ALO” value is reported as 5 (O à 10).
With C=C(CS(=O)(=O)c1sc(C)nc1C)c1cccc(C)c1 [compound 47] the “Notation de l'activité herbicide ALO” value was 5 (O à 10).

What follows are molecules tested on Digitaria sanguinalis in the same assay as above. Details: dose 0.5 Kg m.a./ha, 24 days.
Type: in vivo
Text: as §1, §2, §3, §4, §5, §6, §7, §8, §9, §10, §11, §12, §13
For O=S(=O)(CC(O)(CBr)c1cccc(F)c1)c1sccc1Cl (stereo not shown) [compound 67], the “Notation de l'activité herbicide DIG” value was 5 (O à 10).

Same assay, conditions: dose 1 Kg m.a./ha, 24 days
C=C(CS(=O)(=O)c1sc(C)nc1C)c1cccc(F)c1 [compound 45] was tested, and the “Notation de l'activité herbicide DIG” value was 4 (10 à 30).
With C=C(CS(=O)(=O)c1sc(C)nc1C)c1cc(C)cc(C)c1 [compound 46] the “Notation de l'activité herbicide DIG” value was 5 (O à 10).
C=C(CS(=O)(=O)c1sc(C)nc1C)c1cccc(C)c1 [compound 47] was tested, and the “Notation de l'activité herbicide DIG” value was 5 (O à 10).

What follows are molecules tested on Echinochloa crus-galli in the same assay as above. Details: dose 0.5 Kg m.a./ha, 24 days.
Type: in vivo
Text: as §1, §2, §3, §4, §5, §6, §7, §8, §9, §10, §11, §12, §13
In the case of O=S(=O)(CC(O)(CBr)c1cccc(F)c1)c1sccc1Cl (stereo not shown) [compound 67], the “Notation de l'activité herbicide ECh” value is reported as 4 (10 à 30).

Same assay, conditions: dose 1 Kg m.a./ha, 24 days
C=C(CS(=O)(=O)c1sc(C)nc1C)c1cccc(F)c1 [compound 45] was tested, and the “Notation de l'activité herbicide ECh” value was 5 (O à 10).
For C=C(CS(=O)(=O)c1sc(C)nc1C)c1cc(C)cc(C)c1 [compound 46], the “Notation de l'activité herbicide ECh” value was 4 (10 à 30).
For C=C(CS(=O)(=O)c1sc(C)nc1C)c1cccc(C)c1 [compound 47], the “Notation de l'activité herbicide ECh” value was 4 (10 à 30).

Each molecule was assayed on Panicum milicaeum in the same assay as above. Details: dose 0.5 Kg m.a./ha, 24 days.
Type: in vivo
Text: as §1, §2, §3, §4, §5, §6, §7, §8, §9, §10, §11, §12, §13
For O=S(=O)(CC(O)(CBr)c1cccc(F)c1)c1sccc1Cl (stereo not shown) [compound 67], the “Notation de l'activité herbicide PAN” value was 4 (10 à 30).

Same assay, conditions: dose 1 Kg m.a./ha, 24 days
For C=C(CS(=O)(=O)c1sc(C)nc1C)c1cccc(F)c1 [compound 45], the “Notation de l'activité herbicide PAN” value was 5 (O à 10).
For C=C(CS(=O)(=O)c1sc(C)nc1C)c1cc(C)cc(C)c1 [compound 46], the “Notation de l'activité herbicide PAN” value was 5 (O à 10).
With C=C(CS(=O)(=O)c1sc(C)nc1C)c1cccc(C)c1 [compound 47] the “Notation de l'activité herbicide PAN” value was 5 (O à 10).

The molecules below were run on Setaria faberii in the same assay as above. Details: dose 0.5 Kg m.a./ha, 24 days.
Type: in vivo
Text: as §1, §2, §3, §4, §5, §6, §7, §8, §9, §10, §11, §12, §13
With O=S(=O)(CC(O)(CBr)c1cccc(F)c1)c1sccc1Cl (stereo not shown) [compound 67] the “Notation de l'activité herbicide SET” value was 4 (10 à 30).

Same assay, conditions: dose 1 Kg m.a./ha, 24 days
With C=C(CS(=O)(=O)c1sc(C)nc1C)c1cccc(F)c1 [compound 45] the “Notation de l'activité herbicide SET” value was 3 (30 à 50).
For C=C(CS(=O)(=O)c1sc(C)nc1C)c1cc(C)cc(C)c1 [compound 46], the “Notation de l'activité herbicide SET” value was 1 (70 à 90).
With C=C(CS(=O)(=O)c1sc(C)nc1C)c1cccc(C)c1 [compound 47] the “Notation de l'activité herbicide SET” value was 2 (50 à 70).

The molecules below were run on Sorghum halepense in the same assay as above. Details: dose 0.5 Kg m.a./ha, 24 days.
Type: in vivo
Text: as §1, §2, §3, §4, §5, §6, §7, §8, §9, §10, §11, §12, §13
In the case of O=S(=O)(CC(O)(CBr)c1cccc(F)c1)c1sccc1Cl (stereo not shown) [compound 67], the “Notation de l'activité herbicide SOR” value is reported as 1 (70 à 90).

Same assay, conditions: dose 1 Kg m.a./ha, 24 days
With C=C(CS(=O)(=O)c1sc(C)nc1C)c1cccc(F)c1 [compound 45] the “Notation de l'activité herbicide SOR” value was 5 (O à 10).
C=C(CS(=O)(=O)c1sc(C)nc1C)c1cc(C)cc(C)c1 [compound 46] was tested, and the “Notation de l'activité herbicide SOR” value was 1 (70 à 90).
For C=C(CS(=O)(=O)c1sc(C)nc1C)c1cccc(C)c1 [compound 47], the “Notation de l'activité herbicide SOR” value was 3 (30 à 50).

What follows are molecules tested on blé (assay: Exemple C: selectivity test in field crops, pre-emergence (crop)). Details: dose 0.5 Kg m.a./ha, 24 days, 0 or 1 = selective. Also: ranges in brackets are in %.
Type: in vivo
Text: as §1, §2, §3, §4, §5, §6, §7, §8, §9, §10, §11, §12
(§14) Les espèces végétales utilisées dans cet exemple sont:
(§15) Comme on peut le voir sur le tableau de résultats de cet exemple C, de nombreux produits présentent une excellente activité antigraminée de prélevée tout en montrant une excellente sélectivité pour 1 ou 2 ou 3 ou 4 des 4 cultures testées = blé, maïs, riz, soja.
In the case of O=S(=O)(CC(O)(CBr)c1cccc(F)c1)c1sccc1Cl (stereo not shown) [compound 67], the “Notation de l'activité herbicide TRZ” value is reported as 0 (90 à 100).

Same assay, conditions: dose 1 Kg m.a./ha, 24 days, 0 or 1 = selective
C=C(CS(=O)(=O)c1sc(C)nc1C)c1cccc(F)c1 [compound 45] was tested, and the “Notation de l'activité herbicide TRZ” value was 1 (70 à 90).
In the case of C=C(CS(=O)(=O)c1sc(C)nc1C)c1cc(C)cc(C)c1 [compound 46], the “Notation de l'activité herbicide TRZ” value is reported as 0 (90 à 100).
With C=C(CS(=O)(=O)c1sc(C)nc1C)c1cccc(C)c1 [compound 47] the “Notation de l'activité herbicide TRZ” value was 0 (90 à 100).

Each molecule was assayed on maïs in the same assay as above. Details: dose 0.5 Kg m.a./ha, 24 days, 0 or 1 = selective.
Type: in vivo
Text: as §1, §2, §3, §4, §5, §6, §7, §8, §9, §10, §11, §12, §14, §15
O=S(=O)(CC(O)(CBr)c1cccc(F)c1)c1sccc1Cl (stereo not shown) [compound 67] was tested, and the “Notation de l'activité herbicide ZEA” value was 1 (70 à 90).

Same assay, conditions: dose 1 Kg m.a./ha, 24 days, 0 or 1 = selective
For C=C(CS(=O)(=O)c1sc(C)nc1C)c1cccc(F)c1 [compound 45], the “Notation de l'activité herbicide ZEA” value was 0 (90 à 100).
For C=C(CS(=O)(=O)c1sc(C)nc1C)c1cc(C)cc(C)c1 [compound 46], the “Notation de l'activité herbicide ZEA” value was 0 (90 à 100).
With C=C(CS(=O)(=O)c1sc(C)nc1C)c1cccc(C)c1 [compound 47] the “Notation de l'activité herbicide ZEA” value was 1 (70 à 90).

What follows are molecules tested on riz in the same assay as above. Details: dose 0.5 Kg m.a./ha, 24 days, 0 or 1 = selective. Also: ranges in brackets are in %.
Type: in vivo
Text: as §1, §2, §3, §4, §5, §6, §7, §8, §9, §10, §11, §12, §14, §15
For O=S(=O)(CC(O)(CBr)c1cccc(F)c1)c1sccc1Cl (stereo not shown) [compound 67], the “Notation de l'activité herbicide ORY” value was 0 (90 à 100).

Same assay, conditions: dose 1 Kg m.a./ha, 24 days, 0 or 1 = selective
C=C(CS(=O)(=O)c1sc(C)nc1C)c1cccc(F)c1 [compound 45] was tested, and the “Notation de l'activité herbicide ORY” value was 0 (90 à 100).
C=C(CS(=O)(=O)c1sc(C)nc1C)c1cc(C)cc(C)c1 [compound 46] was tested, and the “Notation de l'activité herbicide ORY” value was 0 (90 à 100).
C=C(CS(=O)(=O)c1sc(C)nc1C)c1cccc(C)c1 [compound 47] was tested, and the “Notation de l'activité herbicide ORY” value was 2 (50 à 70).

Each molecule was assayed on soja in the same assay as above. Details: dose 0.5 Kg m.a./ha, 24 days, 0 or 1 = selective.
Type: in vivo
Text: as §1, §2, §3, §4, §5, §6, §7, §8, §9, §10, §11, §12, §14, §15
In the case of O=S(=O)(CC(O)(CBr)c1cccc(F)c1)c1sccc1Cl (stereo not shown) [compound 67], the “Notation de l'activité herbicide GLY” value is reported as 0 (90 à 100).

Same assay, conditions: dose 1 Kg m.a./ha, 24 days, 0 or 1 = selective
In the case of C=C(CS(=O)(=O)c1sc(C)nc1C)c1cccc(F)c1 [compound 45], the “Notation de l'activité herbicide GLY” value is reported as 0 (90 à 100).
In the case of C=C(CS(=O)(=O)c1sc(C)nc1C)c1cc(C)cc(C)c1 [compound 46], the “Notation de l'activité herbicide GLY” value is reported as 0 (90 à 100).
C=C(CS(=O)(=O)c1sc(C)nc1C)c1cccc(C)c1 [compound 47] was tested, and the “Notation de l'activité herbicide GLY” value was 0 (90 à 100).
